Measurements as given in ChEMBL document CHEMBL5260858, “Targeting mycobacterial membranes and membrane proteins: Progress and limitations” (Bioorg Med Chem, 2023).
In brackets after ≈: the same amount, converted by molar mass.

How the values were obtained:
[1] = test system: Mycobacterium tuberculosis; assay: Antitubercular activity against Mycobacterium tuberculosis H37Rv infected in human HepG2 cells assessed as reduction in colony forming unit by CFU analysis; format: functional, organism-based
[2] = test system: Mycobacterium tuberculosis; assay: Antitubercular activity against Mycobacterium tuberculosis H37Rv assessed as bacterial growth inhibition by REMA analysis; format: functional
[3] = test system: Mycobacterium tuberculosis; assay: Antitubercular activity against Mycobacterium tuberculosis H37Rv assessed as bacterial growth inhibition by microdilution method; format: functional
[4] = test system: Mycobacterium tuberculosis; assay: Antitubercular activity against Mycobacterium tuberculosis H37Rv assessed as bacterial growth inhibition incubated for 6 days by resazurin based fluorescence assay; format: functional; conditions: 144 h, time 6 day
[5] = test system: Mycobacterium tuberculosis; assay: Antitubercular activity against Mycobacterium tuberculosis mc2 7000 assessed as bacterial growth inhibition incubated for 6 days by resazurin based fluorescence assay; format: functional; conditions: mc2 7000, 144 h, time 6 day
[6] = test system: Mycobacterium tuberculosis; assay: Antitubercular activity against Mycobacterium tuberculosis H37Rv assessed as bacterial growth inhibition and measured upto 14 days by microplate alamar blue assay; format: functional; conditions: 336 h, time <= 14 day
[7] = test system: Mycobacterium tuberculosis; assay: Antitubercular activity against Mycobacterium tuberculosis H37Rv assessed as bacterial growth inhibition incubated for 14 days by agar plate method; format: functional; conditions: 336 h, time 14 day
[8] = test system: Mycobacterium tuberculosis; assay: In vivo antimycobacterial activity against Mycobacterium tuberculosis H37Rv infected in BALB/c mouse assessed as reduction in log10 CFU in lungs at 12.5 mg/kg, po and measured after 4 weeks; format: functional
[9] = test system: Mycobacterium tuberculosis; assay: In vivo antimycobacterial activity against Mycobacterium tuberculosis H37Rv infected in BALB/c mouse assessed as reduction in log10 CFU in lungs at 50 mg/kg, po and measured after 4 weeks; format: functional
[10] = test system: Mycobacterium tuberculosis; assay: Antitubercular activity against Mycobacterium tuberculosis assessed as bacterial growth inhibition; format: functional
[11] = test system: Mycobacterium tuberculosis; assay: Antitubercular activity against Mycobacterium tuberculosis H37Rv assessed as bacterial growth inhibition; format: functional
[12] = test system: Mycobacterium tuberculosis; assay: Antitubercular activity against Mycobacterium tuberculosis H37Rv infected in human monocyte macrophage assessed as bacterial growth inhibition and measured after 21 days by colony counting based analysis; format: functional; conditions: 504 h, time 21 day
[13] = test system: Mycobacterium tuberculosis; assay: Antitubercular activity against Mycobacterium tuberculosis H37Rv expressing GFP assessed as bacterial growth inhibition by measuring GFP fluorescence incubated for 72 hrs by fluorescence analysis; format: functional
[14] = test system: Mycobacterium tuberculosis; assay: Antimycobacterial activity against Mycobacterium tuberculosis H37Rv ATCC27294 assessed as bacterial growth inhibition incubated for 7 days by microplate Alamar blue assay; format: functional; conditions: H37Rv ATCC27294, 168 h, time 7 day
[15] = test system: Mycobacterium tuberculosis; assay: Antitubercular activity against Mycobacterium tuberculosis H37Rv ATCC25618 assessed as bacterial growth inhibition incubated for 6 days by resazurin based fluorescence analysis; format: functional; conditions: H37Rv ATCC25618, 144 h, time 6 day
[16] = test system: Mycobacterium tuberculosis; assay: Antitubercular activity against Mycobacterium tuberculosis H37Rv ATCC 27294 infected in mouse J774 cells assessed as intracellular bacterial growth inhibition incubated for by resazurin microtiter assay; format: functional
[17] = test system: Mycobacterium tuberculosis; assay: Antitubercular activity against Mycobacterium tuberculosis H37Rv ATCC 27294 assessed as bacterial growth inhibition by resazurin microtiter assay; format: functional
[18] = test system: Mycobacterium tuberculosis; assay: Antimycobacterial activity against Mycobacterium tuberculosis H37Rv assessed as bacterial growth inhibition incubated for 1 week by resazurin reduction microplate assay; format: functional; conditions: 168 h, time 1 weeks
[19] = target: T1, Decaprenylphosphoryl-beta-D-ribose oxidase (Mycobacterium tuberculosis (strain ATCC 25618 / H37Rv), UniProt P9WJF1); assay: Inhibition of Mycobacterium tuberculosis H37Rv DprE1 assessed as formation of resorufin using farnesyl-phosphoryl-beta-D-ribofuranose by AmplexRed reagent based fluorescence assay
T1 sequence (P9WJF1 whole entry): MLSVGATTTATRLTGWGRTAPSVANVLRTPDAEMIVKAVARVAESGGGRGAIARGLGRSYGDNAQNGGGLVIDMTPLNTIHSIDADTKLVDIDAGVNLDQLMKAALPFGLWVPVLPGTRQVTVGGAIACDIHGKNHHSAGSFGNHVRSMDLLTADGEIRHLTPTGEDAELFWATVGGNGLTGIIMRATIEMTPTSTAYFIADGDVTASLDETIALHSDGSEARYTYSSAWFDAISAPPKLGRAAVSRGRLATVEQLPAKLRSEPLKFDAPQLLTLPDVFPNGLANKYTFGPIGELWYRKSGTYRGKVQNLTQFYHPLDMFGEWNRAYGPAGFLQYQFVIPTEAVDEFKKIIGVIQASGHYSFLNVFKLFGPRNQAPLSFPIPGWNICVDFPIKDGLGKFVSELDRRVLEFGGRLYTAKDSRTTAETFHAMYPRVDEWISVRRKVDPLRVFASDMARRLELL

COc1ccc(CNc2nc3cc(C(F)(F)F)ccc3nc2C(=O)O)cc1
IC50 [1]: 2.5 µM | MIC99 [2]: 3.1 µM (≈ 1.17 µg/mL)

CCOC(=O)c1nc2ccc(C(F)(F)F)cc2nc1NCc1ccc(OC)cc1
IC50 [1]: 6.1 µM | MIC99 [2]: 3.1 µM (≈ 1.26 µg/mL)

COC(=O)c1c(NC(=O)c2c(F)c(F)c(F)c(F)c2F)sc2c1CCCCC2
MIC [3]: 1 µM

c1cc2c(s1)CCOC21CCN(Cc2ccc3c(c2)OCCO3)CC1
MIC [4]: 0.38 µM (≈ 0.136 µg/mL)

CCOC(=O)c1c(-c2ccccc2)oc2ccc(O)c(CN3CCCCC3)c12
MIC [5]: 0.4 µM (≈ 0.152 µg/mL)

Cc1cc(C)c2cc(C(=O)NC3CCCCC3)[nH]c2c1
MIC [6]: 0.125 µg/mL (≈ 0.462 µM)

Cc1cc(C)c2cc(C(=O)NC3CCCCCCC3)[nH]c2c1
MIC [6]: 0.0039 µg/mL (≈ 0.0131 µM)

Cc1cc(C)c2cc(C(=O)NC3CCCCCC3)[nH]c2c1
MIC [6]: 0.0156 µg/mL (≈ 0.0549 µM)

Cc1cc2oc(=O)cc(-c3ccccc3)c2c(C)c1-c1ccc(CN2CCOCC2)cc1
MIC [7]: 0.42 µM (≈ 0.179 µg/mL)

CC1(C)CCC(NC(=O)c2cc3c(F)cc(F)cc3[nH]2)CC1
Activity [8]: 0.9 log10CFU | Activity [9]: 3.4 log10CFU

CC1(C)CCC(NC(=O)c2cc3c(Cl)cc(Cl)cc3[nH]2)CC1
Activity [8]: 1.24 log10CFU | Activity [9]: 3.82 log10CFU

O=c1nc(N2CCN(CCC3CCCCC3)CC2)sc2c([N+](=O)[O-])cc(C(F)(F)F)cc12
MIC [2]: 0.00019 µg/mL (≈ 0.000404 µM)

CCCCCCCN1CCN(c2nc(=O)c3cc(C(F)(F)F)cc([N+](=O)[O-])c3s2)CC1
MIC [2]: 0.00019 µg/mL (≈ 0.000414 µM)

O=c1nc(N2CCN(CCCCOc3ccccc3)CC2)sc2c([N+](=O)[O-])cc(C(F)(F)F)cc12
MIC [2]: 0.0015 µg/mL (≈ 0.00295 µM)

O=c1nc(N2CCN(CCCCc3ccccc3)CC2)sc2c([N+](=O)[O-])cc(C(F)(F)F)cc12
MIC [2]: 0.00035 µg/mL (≈ 0.000711 µM)

Clc1ccc2c(c1)N(CCC[P+](c1ccccc1)(c1ccccc1)c1ccccc1)c1ccccc1S2.[Cl-]
MIC [10]: 1 µg/mL

FC(F)(F)c1ccc2c(c1)N(CCC[P+](c1ccccc1)(c1ccccc1)c1ccccc1)c1ccccc1S2.[Cl-]
MIC50 [11]: 1 µg/mL

Brc1ccc2[nH]c(CCC3CCCCC3)nc2c1
MIC99 [12]: 2.44 µM (≈ 0.75 µg/mL)

Cc1cc2nc(CCC3CCCCC3)[nH]c2cc1C
MIC99 [12]: 0.145 µM (≈ 0.0372 µg/mL)

CCCn1cnc2cc(NCc3ccc(Cl)cc3Cl)ccc21
IC90 [13]: 16 µM

O=c1nc(N2CCC3(CCN(Cc4ccc(F)cc4)C3)CC2)sc2c([N+](=O)[O-])cc(C(F)(F)F)cc12
MIC [14]: < 0.035 µM

CCOC(=O)c1c(-c2ccccc2)oc2ccc(O)c(CN3CCC(C)CC3)c12
MIC [5]: 2.3 µM (≈ 0.905 µg/mL)

CCCCCCCCn1cc(CN2CCCCCC2)c2c(F)cccc21
MIC50 [11]: 2.3 µM

CCCc1ccc(NC(=O)COc2cc(C)nc3ccc(OC)cc23)cc1
MIC [15]: 0.02 µg/mL (≈ 0.0549 µM)

CCCCCc1ccc(NC(=O)COc2cc(C)nc3ccc(OC)cc23)cc1
MIC [15]: 0.02 µg/mL (≈ 0.051 µM)

O=c1c(NCc2ccccn2)c(-c2ccc(N3CCOCC3)cc2)c1=O
MIC [11]: 0.016 µg/mL (≈ 0.0458 µM)

CCc1ccc(NC(=O)COc2cc(C)nc3ccc(OC)cc23)cc1
MIC [15]: 0.02 µg/mL (≈ 0.0571 µM)

CCCCCCCCn1cc(CN2CCC3(CC2)OCCCO3)c2ccc(OC)cc21
MIC50 [11]: 0.5 µM

CC1(C)CC(=O)C(=CNc2ccccc2O)C(=O)C1
MIC [16]: 8 µg/mL (≈ 30.9 µM) | MIC90 [17]: 7 µg/mL (≈ 27 µM)

CCOc1ccc(CNc2nc3cc(C(F)(F)F)ccc3nc2C(=O)O)cc1
MIC99 [2]: 3.1 µM (≈ 1.21 µg/mL)

O=c1nc(N2CCN(CC3CCCCC3)CC2)sc2c(-n3cccc3)cc(C(F)(F)F)cc12
MIC [18]: 0.34 µM (≈ 0.162 µg/mL) | IC50 [19]: < 8 µM
